Laboratory results as given in PMC4638363, “Linear Interaction Energy Based Prediction of Cytochrome P450 1A2 Binding Affinities with Reliability Estimation” (PLoS ONE, 2015).
Where two headings read alike, the source gives them in different places.

What was measured:
CYP 1A2 [1] = details: cited from earlier work
human CYP 1A2 [2] = biological target: T1, human CYP 1A2 (Homo sapiens, UniProt P05177)
T1 sequence (P05177 1-516): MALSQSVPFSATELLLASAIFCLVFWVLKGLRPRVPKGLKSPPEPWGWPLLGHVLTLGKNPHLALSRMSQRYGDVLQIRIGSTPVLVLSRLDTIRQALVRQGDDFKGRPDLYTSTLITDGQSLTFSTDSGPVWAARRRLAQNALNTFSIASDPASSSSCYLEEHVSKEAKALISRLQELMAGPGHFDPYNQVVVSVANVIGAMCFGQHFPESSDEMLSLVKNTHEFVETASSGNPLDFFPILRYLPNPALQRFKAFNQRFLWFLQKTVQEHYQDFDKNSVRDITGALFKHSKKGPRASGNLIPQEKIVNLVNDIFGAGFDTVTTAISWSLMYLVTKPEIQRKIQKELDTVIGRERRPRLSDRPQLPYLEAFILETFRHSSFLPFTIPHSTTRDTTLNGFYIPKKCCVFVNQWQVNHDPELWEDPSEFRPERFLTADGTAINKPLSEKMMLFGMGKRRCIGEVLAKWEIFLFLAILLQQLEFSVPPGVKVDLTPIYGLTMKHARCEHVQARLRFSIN

CYP 1A2 [3] = experiment: Source 1: Bayer HealthCare screen, phenacetin as substrate probe on pooled human liver microsomes; details: for ΔGbind^Obs: from literature IC50, Source 1; for ΔG bind (lit): from literature IC50, Source 1 (Ref. 57)
CYP 1A2 [4] = details: cited from earlier work; remark: listed apart in the source
CYP 1A2 [5] = details: cited from earlier work; remark: listed apart in the source
CYP 1A2 [6] = details: for ΔGbind^Obs: training set, from literature IC50, Source 2
recombinant CYP 1A2 [7] = details: recombinant enzyme; cited from earlier work
recombinant CYP 1A2 [8] = details: human
human CYP 1A2 [9] = biological target: T1, human CYP 1A2; details: for ΔG bind (inhouse): human, 10 min, pH 7.4
human CYP 1A2 [10] = biological target: T1, human CYP 1A2; experiment: in-house CYP 1A2 inhibition assay with 7-methoxyresorufin as substrate (resorufin fluorescence); details: for ΔΔG bind: difference in ΔG bind between literature and in-house determined values; for ΔG bind (inhouse): from in-house IC50 via Cheng-Prusoff and RTln(Ki)
CYP 1A2 [11] = details: human
[12] = Table A, Source 1, ref Bayer HealthCare databases for CYP inhibition (eTOX)
[13] = Table A, Source 2, ref Cohen et al., Drug Metab. Dispos. 2003
[14] = read-out: IC 50 (lit), Source 1, pooled human liver microsomes, phenacetin probe

For `O=C(O)c1cccnc1Nc1cccc(C(F)(F)F)c1` [Compound 16, Niflumic Acid], the IC50 (CYP 1A2 [1]; [12]) is listed as 11.6 µM, the “Residual (ΔGbind^Obs—ΔGbind^Calc)” value (human CYP 1A2 [2]; training set) is listed as 0.693 kcal/mol and the “ΔGbind^Obs” value (CYP 1A2 [3]; training set) is listed as -7.22 kcal/mol.
For `C[C@]12CC[C@@H]3c4cc(F)c(O)cc4CC[C@H]3[C@@H]1CC[C@@H]2O` [Compound 20, 2-Fluoroestradiol], the IC50 (CYP 1A2 [1]; [12]) is listed as 26.8 µM, the “Residual (ΔGbind^Obs–ΔG bind ^Calc), error in prediction” value (human CYP 1A2 [2]; test set) is listed as 1.67 kcal/mol and the “ΔGbind^Obs” value (CYP 1A2 [3]; test set) is listed as -6.72 kcal/mol.
For `CC(C)NCC(O)COc1cccc2ccccc12` (stereo not drawn) [Compound 25, Propranolol], the Reported inhibition mechanism (CYP 1A2 [4]; literature) is listed as “Substrate^72”, the IC50 (CYP 1A2 [5]; [13]) is listed as 3.84 µM and the “Residual (ΔGbind^Obs—ΔGbind^Calc)” value (human CYP 1A2 [2]; training set) is listed as -0.263 kcal/mol. For the same compound, the “ΔGbind^Obs” value (CYP 1A2 [6]) was -7.86 kcal/mol.
For `O=C1C[C@@H](c2ccc(O)cc2)Oc2cc(O)cc(O)c21` [Compound 17, Naringenin], the Reported inhibition mechanism (CYP 1A2 [4]; literature) is given as “Substrate^68”, the IC50 (CYP 1A2 [1]; [12]) is given as 12.3 µM and the “ΔGbind^Obs” value (CYP 1A2 [3]; test set) is given as -7.17 kcal/mol.
For `Cc1cccc(C)c1OCC(C)N` (stereo not drawn) [Compound 23, Mexiletine], the Reported inhibition mechanism (CYP 1A2 [4]; literature) is listed as “Competitive^70”, the IC50 (CYP 1A2 [5]; [13]) is listed as 1.84 µM and the “Residual (ΔGbind^Obs—ΔGbind^Calc)” value (human CYP 1A2 [2]; training set) is listed as -1.86 kcal/mol. The “ΔGbind^Obs” value (CYP 1A2 [6]) was -8.32 kcal/mol.
For `Oc1ccc2ccccc2c1` [Compound 10, 2-naphthol], the IC50 (recombinant CYP 1A2 [7]) is listed as 17 ± 1.5 µM, the “ΔG bind (lit)” value (recombinant CYP 1A2 [8]) is listed as -6.96 ± 0.048 kcal/mol and the “ΔGbind^Obs” value (recombinant CYP 1A2 [8]) is listed as -6.96 kcal/mol. The ΔΔG bind (human CYP 1A2 [9]) was 0.813 kcal/mol, the “ΔG bind (inhouse)” value (human CYP 1A2 [9]) was -7.79 ± 0.17 kcal/mol and the IC50 (human CYP 1A2 [10]) was 4.4 ± 1.2 µM. The “Residual (ΔGbind^Obs–ΔG bind ^Calc), error in prediction” value (human CYP 1A2 [2]) was -1.55 kcal/mol.
In the case of `COc1ccccc1OCCNCC(O)COc1cccc2[nH]c3ccccc3c12` (stereo not drawn) [Compound 3, Carvedilol], the Reported inhibition mechanism (CYP 1A2 [4]; literature) is listed as “Substrate^62”, the IC50 (CYP 1A2 [1]; [12]) is listed as 5.1 µM and the IC50 (CYP 1A2 [1]; [14]) is listed as 5.91 µM. The IC50 (human CYP 1A2 [10]) was 5 ± 0.2 µM, the ΔΔG bind (human CYP 1A2 [10]) was 0.096 kcal/mol and the “ΔG bind (inhouse)” value (human CYP 1A2 [10]) was -7.7 ± 0.024 kcal/mol. For the same compound, the “ΔG bind (lit)” value (CYP 1A2 [3]) was -7.6 kcal/mol.
In the case of `O=c1c(O)c(-c2ccc(O)c(O)c2)oc2cc(O)cc(O)c12` [Compound 14, Quercetin], the Reported inhibition mechanism (CYP 1A2 [4]; literature) is given as “Competitive^67”, the IC50 (CYP 1A2 [1]; [12]) is given as […] and the “Residual (ΔGbind^Obs–ΔG bind ^Calc), error in prediction” value (human CYP 1A2 [2]; test set) is given as […]. The “ΔGbind^Obs” value (CYP 1A2 [3]; test set) was […].
`COc1ccc2nc3ccc(=O)cc-3oc2c1` [7-Methoxyresorufin] showed a K m (human CYP 1A2 [9]) of 2.5 µM.
For `CCOc1ccc(NC(C)=O)cc1` [Compound 6, Phenacetin], the Reported inhibition mechanism (CYP 1A2 [4]; literature) is given as “Substrate^64”, the IC50 (CYP 1A2 [5]; read-out: IC 50 (lit), Source 2, recombinant CYPs, phenacetin O-deethylation) is given as […] and the “Residual (ΔGbind^Obs—ΔGbind^Calc)” value (human CYP 1A2 [2]) is given as […]. For the same compound, the “ΔG bind (lit)” value (CYP 1A2 [6]; from literature IC50, Source 2 (Ref. 58)) was […] and the “ΔGbind^Obs” value (CYP 1A2 [6]) was […].
For `Nc1c2c(nc3ccccc13)CCCC2` [Compound 2, Tacrine], the Reported inhibition mechanism (CYP 1A2 [4]) is listed as “Substrate^61”, the “ΔG bind (lit)” value (CYP 1A2 [11]) is listed as -7.67 kcal/mol and the “ΔGbind^Obs” value (CYP 1A2 [11]) is listed as -7.7 kcal/mol. For the same compound, the ΔΔG bind (human CYP 1A2 [9]) was 0.502 kcal/mol, the “ΔG bind (inhouse)” value (human CYP 1A2 [9]) was -8.17 ± 0.287 kcal/mol and the IC50 (CYP 1A2 [1]; microsomes) was 5.2 µM. For the same compound, the IC50 (human CYP 1A2 [10]) was 2.3 ± 1 µM and the “Residual (ΔGbind^Obs—ΔGbind^Calc)” value (human CYP 1A2 [2]) was -0.669 kcal/mol.
In the case of `Cc1cccc(Nc2ccccc2C(=O)O)c1C` [Compound 1, Mefenamic Acid], the Reported inhibition mechanism (CYP 1A2 [4]; literature) is given as “Competitive^60”, the IC50 (CYP 1A2 [1]; [14]) is given as 14 µM and the IC50 (human CYP 1A2 [10]) is given as 19 ± 7 µM. The ΔΔG bind (human CYP 1A2 [10]) was -0.19 kcal/mol, the “ΔG bind (inhouse)” value (human CYP 1A2 [10]) was -6.91 ± 0.239 kcal/mol and the “Residual (ΔGbind^Obs—ΔGbind^Calc)” value (human CYP 1A2 [2]; training set) was 1.03 kcal/mol. The “ΔG bind (lit)” value (CYP 1A2 [3]) was -7.1 kcal/mol and the “ΔGbind^Obs” value (CYP 1A2 [3]; training set) was -7.1 kcal/mol.
